Source: ChEMBL document CHEMBL2177090, “Ceric ammonium nitrate-promoted oxidative coupling reaction for the synthesis and evaluation of a series of anti-tumor amide anhydrovinblastine analogs” (Bioorg Med Chem Lett, 2012)

system: HeLa; experiment: Cytotoxicity against human HeLa cells by MTT assay; type: functional, cell-based

Compound	IC50 [nM]
CCC1=C[C@H]2CN(CCc3c([nH]c4ccccc34)[C@@](C(=O)OC)(c3cc4c(cc3OC)N(C)[C@H]3[C@@](O)(CCNC(C)=O)[C@H](OC(C)=O)[C@]5(CC)C=CCN6CC[C@]43[C@@H]65)C2)C1	57
CCC(=O)NCC[C@@]1(O)[C@H](OC(C)=O)[C@]2(CC)C=CCN3CC[C@@]4(c5cc([C@@]6(C(=O)OC)C[C@H]7C=C(CC)CN(CCc8c6[nH]c6ccccc86)C7)c(OC)cc5N(C)[C@@H]14)[C@@H]32	110
CCC1=C[C@H]2CN(CCc3c([nH]c4ccccc34)[C@@](C(=O)OC)(c3cc4c(cc3OC)N(C)[C@H]3[C@@](O)(CCNC(=O)C(C)C)[C@H](OC(C)=O)[C@]5(CC)C=CCN6CC[C@]43[C@@H]65)C2)C1	26
CCC1=C[C@H]2CN(CCc3c([nH]c4ccccc34)[C@@](C(=O)OC)(c3cc4c(cc3OC)N(C)[C@H]3[C@@](O)(CCNC(=O)CC(C)C)[C@H](OC(C)=O)[C@]5(CC)C=CCN6CC[C@]43[C@@H]65)C2)C1	185
CCC1=C[C@H]2CN(CCc3c([nH]c4ccccc34)[C@@](C(=O)OC)(c3cc4c(cc3OC)N(C)[C@H]3[C@@](O)(CCNC(=O)C5CC5)[C@H](OC(C)=O)[C@]5(CC)C=CCN6CC[C@]43[C@@H]65)C2)C1	142
CCC1=C[C@H]2CN(CCc3c([nH]c4ccccc34)[C@@](C(=O)OC)(c3cc4c(cc3OC)N(C)[C@H]3[C@@](O)(CCNC(=O)c5ccccc5)[C@H](OC(C)=O)[C@]5(CC)C=CCN6CC[C@]43[C@@H]65)C2)C1	107
CCC1=C[C@H]2CN(CCc3c([nH]c4ccccc34)[C@@](C(=O)OC)(c3cc4c(cc3OC)N(C)[C@H]3[C@@](O)(CCNC(=O)c5ccc(C)cc5)[C@H](OC(C)=O)[C@]5(CC)C=CCN6CC[C@]43[C@@H]65)C2)C1	259
CCC1=C[C@H]2CN(CCc3c([nH]c4ccccc34)[C@@](C(=O)OC)(c3cc4c(cc3OC)N(C)[C@H]3[C@@](O)(CCNC(=O)c5cccc(OC)c5)[C@H](OC(C)=O)[C@]5(CC)C=CCN6CC[C@]43[C@@H]65)C2)C1	169
CCC1=C[C@H]2CN(CCc3c([nH]c4ccccc34)[C@@](C(=O)OC)(c3cc4c(cc3OC)N(C)[C@H]3[C@@](O)(CCNC(=O)c5ccccc5OC)[C@H](OC(C)=O)[C@]5(CC)C=CCN6CC[C@]43[C@@H]65)C2)C1	234
CCC1=C[C@H]2CN(CCc3c([nH]c4ccccc34)[C@@](C(=O)OC)(c3cc4c(cc3OC)N(C)[C@H]3[C@@](O)(CCNC(=O)c5ccccc5F)[C@H](OC(C)=O)[C@]5(CC)C=CCN6CC[C@]43[C@@H]65)C2)C1	247
CCC1=C[C@H]2CN(CCc3c([nH]c4ccccc34)[C@@](C(=O)OC)(c3cc4c(cc3OC)N(C)[C@H]3[C@@](O)(CCNC(=O)c5ccco5)[C@H](OC(C)=O)[C@]5(CC)C=CCN6CC[C@]43[C@@H]65)C2)C1	18
CCC1=C[C@@H]2CN(C1)Cc1c([nH]c3ccccc13)[C@@](C(=O)OC)(c1cc3c(cc1OC)N(C)[C@H]1[C@@](O)(C(=O)OC)[C@H](OC(C)=O)[C@]4(CC)C=CCN5CC[C@]31[C@@H]54)C2 [VINORELBINE]	27
